SMILES strings stand for the structures.

Broadly, the IC50 is the concentration that gives 50% inhibition. Broadly, the Kd is the equilibrium constant for the complex coming apart.

One assay concerns BSA. More on the design: method as in PMID 30865872. To be noted: cited from earlier work.
For assay [1] the following is noted: read-out: Antioxidant activity IC50; cited from earlier work.
Assay [2] deals with T1, bovine serum albumin (BSA) (Bos taurus, UniProt P02769).
T1 construct: bovine serum albumin (BSA), a representative of serum protein; purchased Sigma-Aldrich Co. LLC
T1 sequence (P02769 25-607): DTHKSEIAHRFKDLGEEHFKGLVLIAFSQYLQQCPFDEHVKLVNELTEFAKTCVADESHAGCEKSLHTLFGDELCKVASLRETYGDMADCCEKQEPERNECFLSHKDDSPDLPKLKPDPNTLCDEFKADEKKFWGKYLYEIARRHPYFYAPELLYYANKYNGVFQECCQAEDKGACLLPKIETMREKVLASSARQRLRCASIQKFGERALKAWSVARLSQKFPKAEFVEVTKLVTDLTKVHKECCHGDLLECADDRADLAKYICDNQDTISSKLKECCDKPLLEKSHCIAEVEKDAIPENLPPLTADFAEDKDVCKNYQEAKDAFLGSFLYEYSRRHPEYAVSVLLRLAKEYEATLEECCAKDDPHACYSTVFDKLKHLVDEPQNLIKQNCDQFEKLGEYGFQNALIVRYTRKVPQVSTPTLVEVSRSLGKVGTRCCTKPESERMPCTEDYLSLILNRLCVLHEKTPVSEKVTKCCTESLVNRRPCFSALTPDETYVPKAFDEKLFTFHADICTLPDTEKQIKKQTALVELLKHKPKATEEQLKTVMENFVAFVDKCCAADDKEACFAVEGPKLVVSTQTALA
Nature of the assay: Fluorescence quenching of BSA (Stern–Volmer, Hill and Van't Hoff analyses). It is filed as binding. The following applies: for Stern–Volmer constant Ksv: BSA 4 µM, 5A8HQ 0–170 µM; for Quenching rate constant kq: lifetime of 1 × 10^−8 s assumed. An excerpt: Quenching of intrinsic protein fluorescence can be triggered by either static or dynamic process. In some circumstances, both processes can concurrently provoke fluorescence quenching known as a combined quenching mechanism. Static and dynamic quenching processes obey a linear model of the Stern–Volmer equation (Eq. 1), which can be approximately differentiated by scrutinizing the Stern–Volmer constant ( Ksv ) at different temperatures. Positive relationship of Ksv with temperature indicates dynamic quenching process, while negative association infers static process. Dynamic quenching occurs via collisional encountering among protein and ligand. Increasing temperature enlarges ligand motion to hit protein and quench its fluorescence at the excited state, resulting in increasing Ksv . Static quenching is contrary to the dynamic one. It is arisen by the complexation of protein and ligand, in which rising temperature tends to disfavor binding event and lessen Ksv value. Combined quenching process influences both ground-state and excited state of protein fluorescence, which usually deviates the linearity of classical Stern–Volmer plot to downward or upward curvature[42].1 F0/F=1+KsvQ=1+kqτ0Q F0 and F are the steady-state fluorescence intensities of fluorophore (BSA) in the absence and the presence of quencher (5A8HQ), respectively. Q refers to the molar concentration of quencher. Ksv is Stern–Volmer constant. kq and τ0 are biomolecular quenching rate constant and fluorescence lifetime of the fluorophore without quencher, respectively.
Fluorescence quenching and thermodynamic analyses were performed at three different temperatures including 310, 300, and 290 K to imitate physiological, ambient, and hypothermic conditions, respectively. The 5A8HQ quenched fluorescence emission of BSA in a concentration dependent manner and almost reached saturation at 5A8HQ concentration above 130 µM (Fig. 3A). The Stern–Volmer plots behaved in a positive linear trend, indicating a single process of BSA fluorescence quenching by 5A8HQ (Fig. 3B).
In addition, quenching process could be roughly verified by determining the quenching rate constant of the interaction (Eq. (1)), in which the quenching rate constant at 2 × 10^10 M^−1 s^−1 is usually employed as a maximum cutoff for diffusion collision quenching of various quenchers. The fluorescence lifetime of excited state can be measured using a lifetime spectrofluorometer. However, in case of inaccessible to such instrument like this study, a lifetime of 1 × 10^−8 s is generally assumed for the calculation of quenching rate constant. Accordingly, the quenching rate constant of BSA‒5A8HQ interaction at each temperature was approximated to be 10^12 M^−1 s^−1 (Table 2), which was 100 times higher than that of the typical collisional quenching process (2 × 10^10 M^−1 s^−1). […] Thereby, the binding constants of complexation were elucidated using Hill’s plot.
Various non-covalent interactions play an important role in the binding of ligand to protein including hydrogen bonding, van der Waals force, electrostatic, and hydrophobic interactions. Therefore, complex formation between BSA and 5A8HQ was further explored to determine principal interaction forces and binding affinity. Nonlinear Hill’s equation (Eq. (2)) was applied on the fluorescence dataset of BSA–5A8HQ complex to obtain binding constant ( KA ) and Hill coefficient constant ( n ), which fundamentally infer affinity and cooperativity of the binding, respectively (Fig. 4A).
2 F0-F/F0=KA[Q]^n/1+KA[Q]^n F0 , F , and Q stand for the same annotations as the aforementioned in Eq. (1). Hill’s equation can be transformed to linear form as an expression of Eq. (3), which is often applied in many studies.3 logF0-F/F=logKA+nlogQ KA is similar to KSV in terms of binding constant, but in different aspects of interaction behavior. KA implies a degree of affinity at static process, while KSV rather reflects dynamic behavior among protein and ligand[16]. […]

Assay [3] deals with T1, bovine serum albumin (BSA). As to the kind of experiment: Fluorescence resonance energy transfer (FRET) between BSA and 5A8HQ. Format: binding. An excerpt:
Besides microenvironmental changes around its fluorophore, quenching of BSA fluorescence may also be provoked by fluorescence resonance energy transfer (FRET) process, in which the excited Trp and/or Tyr transfer their energy to the quencher (5A8HQ) via dipole–dipole interaction. However, the FRET phenomenon is strictly dependent on the degree of overlapping between emission spectrum of fluorophore and absorption spectrum of quencher. Also, fluorophore and quencher must be in proximity (2–8 nm) to each other and their transition dipoles must align in parallel orientation. FRET is a useful method to study molecular distance among molecules that can provide guidance on whether ligand binds with protein at proximity to the Trp fluorophore. The distance ( r ) between quencher and fluorophore can be calculated by Eq. (6).6 E=1-F/F0=R06/[…] E stands for the efficiency of fluorescence resonance energy transfer. F0 and F are fluorescence intensities of BSA in the absence and presence of 5A8HQ, respectively. R0 is the Förster distance, where half of the excitation energy is transferred to the acceptor. R0 can be obtained by Eqs. (7) and (8) as follows:7 R0=0.211k^2∅DJ/n^4^1/6 8 J=∫0∞Fλελλ^4dλ/∫0∞Fλdλ where k^2 is the orientation factor of the dipoles, which can range between 0 and 4. ∅D and n denote the fluorescence quantum yield of donor without quencher and the refractive index of the medium, respectively. J is an overlapping between the donor fluorescence spectrum and the quencher absorption spectrum. Fλ and ελ mean fluorescence intensity of the donor and molar absorption coefficient of the acceptor at the λ wavelength.
R0 was determined on the assumption that ∅D and n were 0.15 and 1.336, respectively. However, Förster distance depends greatly on orientation between donor’s and acceptor’s dipoles. k^2 value of 0.667 is generally assumed for dynamic dipole orientation, where dipoles are randomly oriented because of their rotational diffusion. […] Based on these two assumptions of dipole orientation, R0 were calculated to be 2.37 and 2.50 nm, which subsequently yielded the Trp to 5A8HQ distances ( r ) at 3.01 and 3.18 nm for static and dynamic dipole orientations, respectively.

For assay [4], the target named is T1, bovine serum albumin (BSA). Nature of the assay: Site probe competitive (site marker displacement) analysis. Format: binding. To be noted: 310 K; for Kd: Binding constant KA, BSA 4 µM. An excerpt: Serum albumin can bind and transport various molecules since its structure assembles many binding pockets. Site I and site II are well-defined binding pockets located in hydrophobic regions of subdomains IIA and IIIA, respectively, which primarily bind aromatic and heterocyclic compounds. Site III is found on the hydrophilic region of subdomain IB to serve as a binding pocket for numerous compounds e.g., bilirubin, hemin, and sulfonamide derivatives. In addition, seven binding sites for fatty acids are discovered on subdomains IB, IIIA, and IIIB, and at the interface between subdomains. Herein, site-probe displacement study was employed to determine the preferred binding site on BSA of 5A8HQ using warfarin, ibuprofen, and digitoxin as competitive probes for sites I, II, and III, respectively. Binding constant of 5A8HQ to BSA was determined during equilibration with each site marker (Table 4).
BSA (4 µM) was equilibrated with various concentrations of 5A8HQ (0, 5, 10, 30, 50, 70, 90, 110, 130, 150, and 170 µM) for 10 min at the different temperatures (290, 300, and 310 K). Later, fluorescence spectra in a range of 285–450 nm were measured with 280 nm excitation using a temperature-controlled QuantaMaster™ 40 spectrofluorometer (Photon Technology International, Inc., Ontario, Canada). Site marker displacement analyses were achieved as the abovementioned, but an equimolar concentration of […] was added to BSA prior challenging with various 5A8HQ concentrations at physiological temperature (310 K). Inner filter effect (IFE) becaused by the excitation and emission beam attenuations by sample might produce nonlinearity artifact on the measured fluorescent signal, so IFE was routinely eradicated by the following equation[55].9 Fcor=Fobs×e^(A^ex-A^em)/2 where Fobs and Fcor are the measured and corrected fluorescence intensities, respectively. A^ex and A^em are the absorbance values at excitation and emission wavelengths being measured. The IFE corrected fluorescence signals were served for estimations of all pertinent parameters, such as quenching constant, binding constant, and thermodynamics parameters, if not otherwise stated.

Assay [5] addresses T1, bovine serum albumin (BSA). Nature of the assay: Circular dichroism spectroscopy of BSA secondary structure. To be noted: BSA 4 µM, 310 K, without 5A8HQ 66.17%. An excerpt: Structural alteration of the BSA when interacting with 5A8HQ was further elucidated by a CD spectroscopy, which is a useful technique for analyzing the secondary structure of macromolecules. BSA structure is dominantly composed of α-helix (~ 67%), represented by two prominent negative bands at 208 (π–π* transition) and 222 (n–π* transition) nm, and a positive band at 192 nm (π–π* transition)[54]. […] This finding is in well agreement with other observations, especially thermodynamic parameters, molecular docking, and molecular dynamics simulations, which implied that BSA tends to transform its native conformation for ground-state complexation with 5A8HQ. Hydrogen bonding and electrostatic networks of the complex might reallocate hydrogen bonding of α-helix structure as indicated by a slight decrease in CD spectral bands.
CD measurement was performed to determine a secondary conformational alteration of BSA under 5A8HQ exposure using a Jasco J-815 spectropolarimeter (JASCO International Co. Ltd., Tokyo, Japan). BSA (4 µM) was incubated with 5A8HQ (5 and 50 µM) in a 1 mm path length cuvette at 310 K under constantly flushed with nitrogen. The spectra were recorded in a range of 200–260 nm at an interval of 1 nm with a 60 nm/min scanning rate.
For orientation: CD spectra are sensitive to the conformation of chiral molecules.

In the case of `Oc1c(I)cc(Cl)c2cccnc12` [clioquinol, 5-chloro-7-iodo-8-hydroxyquinoline], the “Binding constant KA” value in the assay on BSA is reported as 10^8 M^−1.

Take `Cc1c(C)c2c(c(C)c1O)CC[C@@](C)(CCC[C@H](C)CCC[C@H](C)CCCC(C)C)O2` [α-tocopherol, reference compound]: the IC50 in assay [1] is 13.5 µM.

As for `Nc1ccc(O)c2ncccc12` [5A8HQ, 5-Amino-8-hydroxyquinoline], the “Hill coefficient constant n” value in assay [2] (290 K), in assay [2] (300 K) and in assay [2] (310 K) was 1 ± 0 throughout. For the same compound, the “Stern–Volmer constant Ksv” value in assay [2] (290 K) is recorded as 2.773 ± 0.071 × 10^4 M^−1; in assay [2] (300 K) it was 1.303 ± 0.043 × 10^4 M^−1; in assay [2] (310 K), 1.173 ± 0.032 × 10^4 M^−1. Further, the “Quenching rate constant kq” value in assay [2] (290 K) was 2.773 ± 0.071 × 10^12 (M^−1 s^−1); in assay [2] (300 K), 1.303 ± 0.043 × 10^12 (M^−1 s^−1); in assay [2] (310 K) it was 1.173 ± 0.032 × 10^12 (M^−1 s^−1). Besides, the dissociation constant (Kd) was 40 µM in assay [2] (Binding constant KA, 290 K, Hill's equation); 58.6 µM in assay [2] (Binding constant KA, 300 K, Hill's equation); 83.7 µM in assay [2] (Binding constant KA, 310 K, Hill's equation); 100 µM in assay [2] (Binding constant of BSA‒5A8HQ interaction (order of magnitude), 290–310 K); 47.6 µM in assay [4] (with digitoxin (site III marker) 4 µM); 47.8 µM in assay [4] (with ibuprofen (site II marker) 4 µM). Also, the Kd in assay [4] (with warfarin (site I marker) 4 µM) is 47.1 µM; in assay [4] (without site marker), 83.7 µM. For the same compound, the “Quenching rate constant (order of magnitude)” value in assay [2] (at each temperature, lifetime 1 × 10^−8 s assumed) was ~10^12 M^−1 s^−1. Also, the “Integral spectral overlap J” value in assay [3] (BSA 4 µM fluorescence, 5A8HQ 5 µM absorption) is 9.55 × 10^13 M^−1 cm^−1 nm^4. The results for the “Trp to 5A8HQ distance r” value in assay [3] (dynamic dipole orientation) and in assay [3] (static dipole orientation) were 3.18 nm and 3.01 nm, respectively. Moreover, the “Förster distance R0” value is on record as 2.50 nm in assay [3] (dynamic dipole orientation, k^2 0.667) and 2.37 nm in assay [3] (static dipole orientation, k^2 0.475). Moreover, the “Number of binding site n” value in assay [4] (with digitoxin 4 µM), in assay [4] (with ibuprofen 4 µM), in assay [4] (with warfarin 4 µM) and in assay [4] (without site marker) was 1 ± 0 in each case. In addition, the figures for the “α-helix content of BSA” value in assay [5] (5A8HQ 5 µM) and in assay [5] (5A8HQ 50 µM) were 64.96% and 63.65%, respectively. For the same compound, the IC50 in assay [1] was 8.71 µM.

These data come from paper PMC8511024, “In silico and multi-spectroscopic analyses on the interaction of 5-amino-8-hydroxyquinoline and bovine serum albumin as a potential anticancer agent” (Scientific Reports, 2021).
